# In patent publication US20010006966A1, “Use of 1- (aminoalkyl) -3-quinoxaline-2-on derivatives for the preparation of compounds having an antioxidant action” (priority 1998, published 2001):
# How the values were obtained:
# skin cancer = test: Prevention of skin cancer in UV-irradiated guinea pigs; assay type: in vivo; conditions: highly concentrated solution brushed on shaved neck; for cancer cells in tissue samples after two weeks of UV irradiation: UV-A, UV-B, UV-C at least two hours per day
# Source text: Use of 1-(aminoalkyl)-3-quinoxaline-2-on derivatives for preventing skin cancer in guinea pigs.
# A group of six guinea pigs was shaved in the neck region and exposed to intensive UV irradiation over a period of at least two hours per day. The UV irradiation contained portions of both UV-A and UV-B and UV-C rays. A highly concentrated solution of Caroverine.hydrochloride was brushed on the shaved neck regions of four of the six guinea pigs prior to the commencement of the first irradation, wherein attention was paid to that the distribution was effected as uniform as possible and over all of the irradiated zone.
# [1] = human, in vivo
# [2] = system: metabotropic group I glutamate receptors; test: Antagonism of metabotropic group I glutamate receptors in the ear of guinea pigs (behavior, ear electrodes); assay type: in vivo; conditions: 8 mg/kg into the vein of the ear
# Experimental: Use of 1-(aminoalkyl)-3-quinoxaline-2-on derivatives as antagonists of the metabotropic group I glutamate receptors in the ear of guinea pigs.
# A group of six guinea pigs was injected hydroxyphenyl glycerin as a receptor agonist into the ear, the receptor responding in a manner so as to strongly increase the auditory performance of the guinea pigs. […] Four of the six guinea pigs were subsequently injected a dose of 8 mg/kg body weight of the guinea pig into the vein of the ear and the behavior of the guinea pigs was observed. […] These behavioral peculiarities of the guinea pigs were also observed by applying electrodes to the ears of the animals, from whose measured data it could be readily read whether the exposure of the animals to unexpected noises caused excitement or not.
# [3] = Comparative kinetic studies with ABTA, hydroxyl radicals; assay type: biochemical; conditions: absence or presence of cerebral homogenate
# Experimental: (§1) In respect of the antioxidative effect of 1-(aminoalkyl)-3-quinoxaline-2-on derivatives and in respect of their radical interceptor properties, in vitro tests were carried out with Caroverine and the specific radical intercepting reagent 2,2′-azino-bis(3-ethylbenz)thiazoline-6-sulfonic acid (ABTA) in order to compare the radical interceptor property of Caroverine with that of ABTA. In the presence of highly reactive radicals, ABTA is oxidized to the stable thiazoline cation radical ABTA^+. The intensive green color of that radical was photometrically measured with a main absorption band at 420 nm. […] Caroverine reacted rapidly with free hydroxyl, peroxyl and ABTA cation radicals, as was shown in comparative studies with ABTA in the absence and in the presence of cerebral homogenate. The rate constant for the reaction with hydroxyl radicals was 0.4×10^10 M/l/s and that for peroxyl radicals was 0.5×10^10 M/l/s, as was realized by comparative kinetic studies with ABTA in the absence or in the presence of cerebral homogenate (FIG. 6). […] In doing so, ABTA cation radical formation and reduction were applied, as already mentioned, in order to examine the single electron transfer reactions, since that substance enables direct measurements of radical formation and radical reduction on account of its color.
# [4] = Comparative studies of antioxidant and radical interceptor property; assay type: biochemical
# Source text: wherein R is hydroxy, methoxy, ethoxy or hydrogen, or pharmaceutically acceptable salts thereof, for the preparation of compositions acting as antioxidants for preventing or treating diseases caused by free radicals of the oxygen cell metabolism, for stimulating the growth of nerve cells, antagonizing glutamate receptors and/or stimulating the growth of, in particular glutamatergic, nerve cells. […] Moreover, it has been shown in a surprising manner that specific 1-(aminoalkyl)-3-quinoxaline-2-on derivatives and, in particular, Caroverine are capable of antagonizing metabotropic glutamate receptors. Since glutamate receptors and, in particular, metabotropic glutamate receptors have been recognized as promoters or catalysts of intracellular metabolism, Caroverine and other 1-(aminoalkyl)-3-quinoxaline-2-on derivatives are capable of antagonizing, i.e., markedly retarding, in particular, that intracellular metabolism.
# For that reason, Caroverine is supposed to be able to facilitate the repair of long-lived organic radicals and damaged biomolecules.
# auditory nerve = test: Sound audiogram in patients with severe sudden loss of hearing / cochlear implant; assay type: in vivo, human
# Experimental: By way of clinical examples, the efficacy of Caroverine (1-diethylaminoethyl-3-(p-methoxybenzyl)-1,2-dihydroquinoxaline-2-on) as a neuroregenerative substance was tested in two patients suffering from a severe sudden loss of hearing. In the enclosed diagram of FIG. 1, the sound audiogram of a patient is shown, the dot-and-dash line illustrating the sound audiogram after a sudden loss of hearing, the broken line illustrating the sound audiogram immediately upon commencement of the treatment, and the full line illustrating the patient's sound audiogram two weeks after the beginning of treatment, the patient over that period having been treated by the administration of an elevated dose of Caroverine. 240 mg Caroverine dissolved in 250 ml physiological saline were each slowly administered intravenously three times a day. […] A cochlear implant was not inserted.
# Ca2+ ion flux into cells = conditions: as stated in EP-A 0 032 564; cited from earlier work
# HIV = HIV replication in macrophages derived from monocytes; assay type: cell-based
# [5] = Treatment of patients suffering from Alzheimer's disease; assay type: in vivo, human; conditions: three weeks
# Source text: By way of two male patients aged between 70 and 75 and suffering from Alzheimer's disease, the effect of Caroverine as a neuroregenerative substance was further investigated. The patients had average body weights of 75 kg and were in-patients. […] The time of treatment in each case was maintained for three weeks.
# [6] = system: metabotropic group I glutamate receptors; test: Microelectrodes on the auditory nerve of the narcotized animal; assay type: in vivo, guinea pigs
# Source text: Furthermore, the inhibiting influence of Caroverine on the metabotropic group I glutamate receptors was investigated on the narcotized animal by applying microelectrodes to the auditory nerve.
# carcinoma of the colon = test: Patients with carcinoma of the colon, added to chemotherapy; assay type: in vivo, human; conditions: three patients; with Irinothekam and Oxaliplatine; day 1 i.v., other days 3×3 tablets a day
# Source text: Three patients aged between 19 and 75 and suffering from carcinoma of the colon were additionally administered Caroverine beside the usual chemotherapy with Irinothekam and Oxaliplatine for the four-week period of chemotherapy, the administration on day 1 having been effected at an elevated dose, i.e., intravenously in physiological saline, and on the other days by administering 3×3 tablets a day.
# [7] = Treatment of patients suffering from periodic schizophrenia; assay type: in vivo, human
# Experimental: 4 patients, two female and two male patients, aged between 40 and 50 and suffering from periodic schizophrenia were treated with elevated doses of Caroverine during massive attacks. […] The treatment time was 7 days, 14 days and 21 days, respectively.
# [8] = Treatment of patients suffering from type I allergy (hay fever); assay type: in vivo, human; conditions: 5 hay fever patients, tablet 150 mg three times a day
# Experimental: 5 patients, 2 female and 3 male patients, suffering from type I allergy, namely hay fever, were treated with Caroverine at the occurrence of allergical primary reactions, i.e., sneezing, cervical irritations as well as rhinorrhea. They each received one tablet containing 150 mg Caroverine three times a day.
# For comparative reasons, two patients were treated with usual antihistamines, wherein both the primary manifestations of the allergy and, in particular, the secondary manifestations could not be suppressed immediately and completely such that the patients were suffering from their disease hay fever substantially as long as straining by the causers, namely grass pollens, was maintained. Nor was it possible to discontinue the administration of the medicament as long as pollen flight was observed.
# [9] = Speech and articulation capacity of a patient after a stroke; assay type: in vivo, human; conditions: 4×160 mg i.v. per day, 3 months, approximately 50% at beginning of treatment
# Experimental: A patient suffering from serious speech impediments due to a stroke was intravenously administered Caroverine over a period of 3 months at an elevated dose of 4×160 mg Caroverine in physiological saline per day.
# nerve cells = test: In vitro tests for neuroregenerative effect; assay type: cell-based; conditions: low dosages, dosages known from the literature
# [10] = system: advanced head and throat tumors; test: Patients with advanced head and throat tumors, added to chemotherapy; assay type: in vivo, human; conditions: beside the regular chemotherapy
# [11] = ABTA cation radical formation and reduction, photometric at 420 nm; assay type: biochemical
# Experimental: as §1
# [12] = Comparative kinetic studies with ABTA, peroxyl radicals; assay type: biochemical; conditions: absence or presence of cerebral homogenate
# Experimental: as §1
# facial nerve = test: Treatment of patients suffering from facial nerve paralysis; assay type: in vivo, human
# Experimental: The neuroregenerative action of Caroverine was further investigated by way of two patients suffering from facial nerve paralysis. Two female patients suffering from a serious paralysis of the […] nerve were treated with Caroverine in the form of a combined cure over a period of 4 weeks, wherein, on the one hand, Caroverine was applied three times a day by intravenously administering 360 mg Caroverine each and the active substance, in addition, was administered in the form of a depot plaster containing 1000 mg Caroverine. The depot plaster was replaced once a week.
smiles,measurement,setting,value
CCN(CC)CCn1c(=O)c(Cc2ccc(OC)cc2)nc2ccccc21.Cl [Caroverine.hydrochloride],skin injuries after two weeks of UV irradiation,skin cancer,some reddening of the skin
same,cancer cells in tissue samples after two weeks of UV irradiation,skin cancer,no cancer cells could be detected
"CCN(CC)CCn1c(=O)c(Cc2ccc(O)cc2)nc2ccccc21 [1-diethylaminoethyl-3-(p-hydroxybenzyl)-1,2-dihydroquinoxaline-2-on]",harmful side effects in test animals and patients,[1],without harmful side effects
same,harmful side effects on the assayed cells,assayed cells,without harmful side effects
same,cancer cells in tissue samples after two weeks of UV irradiation,skin cancer,identical result
"CCN(CC)CCn1c(=O)c(Cc2ccc(OC)cc2)nc2ccccc21 [Caroverine, 1-diethylaminoethyl-3-(p-methoxybenzyl)-1,2-dihydroquinoxaline-2-on]","excitement upon unexpected noises, measured data of ear electrodes",[2],excitement was effected not at all or only to an extremely slight extent
same,behavior of guinea pigs upon noise after receptor agonist hydroxyphenyl glycerin,[2]; four of six guinea pigs,calmed down immediately
same,rate constant for the reaction with hydroxyl radicals (FIG. 6),[3],0.4×10^10 M/l/s
same,"effectiveness relative to the known antioxidants Ascorbate, Trolox and Glutathione",[4],at least three times as effective
same,radical interceptor property relative to Melatonine,[4],reach that of Melatonine
same,harmful side effects in test animals and patients,[1],without harmful side effects
same,"improvement of hearing performance (sound audiogram, FIG. 2), low doses","auditory nerve; patient, 160 mg three times a day",little significant
same,"hearing performance (sound audiogram, FIG. 1)","auditory nerve; patient, 240 mg in 250 ml saline i.v. three times a day, two weeks",marked increase in the hearing performance
same,"hearing performance 0.125 to 2 kHz (sound audiogram, FIG. 2), high doses plus cochlear implant","auditory nerve; patient, 240 mg/250 ml saline four times a day, two weeks, cochlear implant inserted",nearly corresponds to the hearing performance of a healthy individual
same,"hearing performance 0.250 to 8 kH (sound audiogram, FIG. 3)","auditory nerve; patient, 300 mg in 500 ml saline each day, two weeks, no cochlear implant",essentially corresponds to the hearing performance of a healthy individual
same,audition of patients carrying cochlear implants,auditory nerve; simultaneous administration with cochlear implant,clearly enhancing the audition
same,inhibition of the Ca2+ ion flux into cells,Ca2+ ion flux into cells,up to 50%
same,harmful side effects on the assayed cells,assayed cells,without harmful side effects
same,replication of HIV in macrophages derived from monocytes,HIV,markedly reduced
same,"condition of Alzheimer patients, lower dose",[5]; 160 mg in 250 ml saline i.v. three times a day,not as pronounced and sustained
same,condition of Alzheimer patients at end of treatment,"[5]; two male patients, 400 mg infusion three times a day",marked improvement in the conditions
same,excitability of the metabotropic group I glutamate receptors,[6],strongly suppressed
same,colon carcinoma after four-week chemotherapy plus Caroverine,carcinoma of the colon,complete disappearance of the colon carcinoma
same,persistence of the improvement beyond the treatment time,"[7]; 400 mg infusion three times a day, 7, 14 or 21 days",only that patient whose treatment time was 21 days was successful even beyond the treatment time
same,behavior of schizophrenia patients during treatment,"[7]; 4 patients, 400 mg infusion three times a day, 7, 14 or 21 days",marked improvements in their behaviors
same,"behavior of schizophrenia patients, combination with Haloperidole",[7]; daily dose 240 mg or 400 mg Caroverine in combination with 10 mg Haloperidole,results analogous to those of the higher-dose administration of Caroverine
same,"serious side effects usual with psychopharmacological agents (apathetic conditions, weight gains)",[7]; schizophrenia patients,could be avoided
same,secondary manifestations of the allergic reactions (cervical rubor and the like),[8],could be avoided
same,"primary reactions (sneezing, rhinorrhea and the like)",[8]; after two-day administration,completely disappeared
same,articulation capacity after the end of treatment (FIG. 4),[9],100%
same,neuroregenerative effect,nerve cells,no neuroregenerative effect
same,complete disappearance of head and throat tumors,[10],No complete disappearance of the tumors was feasible
same,"tumor size, head and throat tumors",[10],reduction of the tumor size
same,formation of the ABTA cation radical due to hydroxyl and peroxyl radicals (FIG. 5),[11]; in the absence and in the presence of cerebral homogenate,able to inhibit the formation of the ABTA cation radical
same,ABTA cation radical reduction,[11]; in the presence and in the absence of cerebral homogenate,catalyzes ABTA cation radical reduction
same,activity as an electron donor,"[11]; low, micromolar concentrations",highly active as an electron donor
same,rate constant for the reaction with peroxyl radicals (FIG. 6),[12],0.5×10^10 M/l/s
same,signs of facial paralysis on further extension of treatment,"facial nerve; same regimen, extended period",additional reductions of the paralytical signs
same,signs of facial paralysis after 2 weeks,"facial nerve; two female patients, 360 mg i.v. three times a day plus depot plaster 1000 mg weekly",improvement in the signs of paralysis
